Reference: paper PMC9499324, “Glycyrrhizic Acid Derivatives Bearing Amino Acid Residues in the Carbohydrate Part as Dengue Virus E Protein Inhibitors: Synthesis and Antiviral Activity” (International Journal of Molecular Sciences, 2022)

Legend:
DENV2 [1] = assay: DENV2 infectivity inhibition (anti-NS4B immunofluorescence) in A549 cells; format: cell-based, Dengue virus type 2; conditions: Dengue virus
wild-type ZIKV SRIPs = assay: Attachment assay with wild-type ZIKV SRIPs on Vero E6 cells; format: cell-based, Zika virus; conditions: 4 °C for 1 h
Method: (§1) Figure 7 Attachment inhibition of chimeric DENV2 prM-E/ZIKV and wild-type ZIKV SRIPs by active GL derivatives 3 and 11. Vero E6 cells were pre-cooled and incubated with fresh-prepared mixtures of DENV2 prM-E/ZIKV or wild-type ZIKV SRIPs, with active GL derivatives 3 (A), and 11 (B) at 4 °C for 1 h, respectively. After the removal of the mixtures, the cells were kept at 37 °C for 18 h and then an immunofluorescent assay with anti-ZIKV NS1 antibodies plus DAPI staining was performed. Finally, the inhibition percentage of SRIP attachment infectivity was measured as follows: 1-(percentage of ZIKV NS1 positivity in treated cells/ percentage of ZIKV NS1 positivity in mock-treated cells). * p < 0.05; *** p < 0.001 compared with untreated, infected cells.
(§2) DNA-launched cytomegaloviruses (CMV) promoter-driven JEV and ZIKV replicons had been constructed, as described in our prior reports. […] After the removal of the mixture (the compound and SRIP), the cells were incubated at 37 °C for 18 h, and then were analyzed by immunofluorescent assay with anti-JEV NS3 and anti-ZIKV NS5 antibodies, respectively, plus DAPI staining for determining the residual infectivity of wild-type and chimeric SRIPs, as described above.

[2] = MTT cytotoxicity assay in A549 cells; format: cell-based; conditions: human
Method: Vero E6 cells and A549 cells (5 × 10^3 cells/well) were treated with the serial dilution of GL conjugates at 0, 0.1, 10, 20, and 50 μM for examining the in vitro cytotoxicity of tested compounds. After 96-h incubation at 37 °C, the cells were incubated with MTT (3-(4,5-Dimethylthiazol-2-yl)-2,5-Diphenyltetrazolium Bromide) solution for another 4 h incubation, mixed with DMSO for 15 min after the removal of media, and then measured the absorbance at 570 nm. The viability (%) of treated cells was quantified according to the reduced ability of MTT. Finally, the concentration for reducing 50% cell viability (the 50% cytotoxic concentration, CC50) was determined by regression analysis of the concentration–response survival curve.

DENV2 prME/ZIKV SRIPs = assay: E protein-mediated attachment assay with chimeric DENV2 prME/ZIKV SRIPs on Vero E6 cells; format: cell-based, Dengue virus type 2; conditions: Vero C1008, 1 h, read-out: IC50 of E-mediated attachment against DENV2 prME/ZIKV SRIPs
Method: as §1, §2

DENV2 [3] = assay: DENV2 infectivity inhibition (anti-NS4B immunofluorescence) in Vero E6 cells; format: cell-based, Dengue virus type 2; conditions: Dengue virus; for inhibition at 10 µM: Vero C1008, 10 μM compound, DENV2, Vero E6 cells, 96 h, read-out: Inhibition (%) at 10 μM (reduction of NS4B-positive cells)
Excerpt: […] In CPE and infectivity reduction assays, […], and then photographed by microscope for examining the levels of DENV2-induced CPE in infected cells treated with or without GL conjugate. Meanwhile, the cells were further performed using immunofluorescence assay (IFA) with anti-DENV NS4B antibodies (GeneTex, Inc., Hsinchu, Taiwan) and anti-rabbit IgG antibodies conjugated with AF555 (ThermoFisher, Waltham, MA, USA) plus DAPI (4′,6-diamidino-2-phenylindole) nuclear staining. Finally, the DENV-2 infectivity was measured according to the ratio of DENV NS4B-positive cells to DAPI-stained cells in the well of mock-treated or treated cells, as described in [45, 59, 60].

DENV2 [4] = assay: DENV2-induced cytopathic effect (CPE) reduction screening in Vero E6 cells; format: cell-based, Dengue virus type 2; conditions: Dengue virus, Vero C1008; 10 μM compound, DENV2, Vero E6 cells, 96 h; read-out: CPE Reduction at 10 μM
Method: In the antiviral screening assay, each tested GL conjugate at 10 μM was used to survey the anti-DENV activity in Vero E6 cells using cytopathic effect (CPE) and infectivity reduction assays as described in our prior report. In CPE and infectivity reduction assays, Vero E6 cells were infected by DENV2 at an MOI of 0.005 and simultaneously treated 10 μM of indicated GL conjugate for 96 h, and then photographed by microscope for examining the levels of DENV2-induced CPE in infected cells treated with or without GL conjugate. Meanwhile, the cells were further performed using immunofluorescence assay (IFA) with anti-DENV NS4B antibodies (GeneTex, Inc., Hsinchu, Taiwan) and anti-rabbit IgG antibodies conjugated with AF555 (ThermoFisher, Waltham, MA, USA) plus DAPI (4′,6-diamidino-2-phenylindole) nuclear staining. Finally, the DENV-2 infectivity was measured according to the ratio of DENV NS4B-positive cells to DAPI-stained cells in the well of mock-treated or treated cells, as described in [45, 59, 60].

SMILES | IC50 (DENV2 [1]) [µM] | Attachment of wild-type ZIKV SRIPs onto Vero E6 cells (wild-type ZIKV SRIPs) | CC50 at 96 h [2] [µM] | IC50 (DENV2 prME/ZIKV SRIPs) [µM] | IC50 (DENV2 [3]; DENV2, Vero C1008, read-out: Inhibition of DENV2 Infectivity (IC50, μM), Vero E6 cells) [µM] | inhibition at 10 µM (DENV2 [3]) [%] | inhibition at 10 µM (DENV2 [4]) [%]
CCOC(=O)[C@H](Cc1ccccc1)NC(=O)[C@H]1O[C@@H](O[C@H]2[C@H](OC3CC[C@@]4(C)C(CC[C@]5(C)C4C(=O)C=C4C6C[C@@](C)(C(=O)O)CC[C@]6(C)CC[C@]45C)C3(C)C)O[C@H](C(=O)N[C@@H](Cc3ccccc3)C(=O)OCC)[C@@H](O)[C@@H]2O)[C@H](O)[C@@H](O)[C@@H]1O (stereo partly drawn) [Compound 11, 3-O-{2-O-[N-(β-D-Glucopyranosyluronoyl)-L-phenylalanineethyl ester]-N-(β-D-Glucopyranosyluronoyl)-L-phenylalanineethyl ester}-(3β, 20β)-11-oxo-30-noroleane-12-ene-30-oic Acid] | 1.56 ± 0.49 | did not impede | > 100 | 1.26 | 0.17 to 0.5 | 91.3 | 75 to 100
COC(=O)[C@H](NC(=O)[C@H]1O[C@@H](O[C@H]2[C@H](OC3CC[C@@]4(C)C(CC[C@]5(C)C4C(=O)C=C4C6C[C@@](C)(C(=O)O)CC[C@]6(C)CC[C@]45C)C3(C)C)O[C@H](C(=O)N[C@@H](C(=O)OC)C(C)C)[C@@H](O)[C@@H]2O)[C@H](O)[C@@H](O)[C@@H]1O)C(C)C (stereo partly drawn) [Compound 3, 3-O-{2-O-[N-(β-D-Glucopyranosyluronoyl)-D-valinemethyl ester]-N-(β-D-glucopyranosyluronoyl)-D-valinemethyl ester}-(3β, 20β)-11-oxo-30-noroleane-12-ene-30-oic Acid] | 0.12 ± 0.028 | did not impede | > 100 | 2.82 |  | 90.7 | 75 to 100
